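Cultured in 96-well plates, cells were exposed to test compound for 48 hours across five concentrations. TGI: total growth inhibition.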
Experiments:
Assay in all cases: NCI anticancer screen, dose series, 48 h
[1] = tested on: 786-0 renal
[2] = tested on: TK-10 renal
[3] = tested on: LOX IMVI melanoma
[4] = tested on: HS 578T breast
[5] = tested on: RPMI-8226 leukemia
[6] = tested on: SK-OV-3 ovarian
[7] = tested on: PC-3 prostate
[8] = tested on: SF-268 CNS
[9] = tested on: SK-MEL-28 melanoma
[10] = tested on: KM12 colon
[11] = tested on: HL-60(TB) leukemia
[12] = tested on: SF-295 CNS
[13] = tested on: COLO 205 colon
[14] = tested on: MCF7 breast
[15] = tested on: ACHN renal
[16] = tested on: SK-MEL-5 melanoma
[17] = tested on: HT29 colon
[18] = tested on: IGROV1 ovarian
[19] = tested on: HCT-116 colon
[20] = tested on: NCI-H23 lung
[21] = tested on: HOP-92 NSCLC
[22] = tested on: SF-539 CNS
[23] = tested on: CCRF-CEM leukemia
[24] = tested on: NCI-H460 lung
[25] = tested on: T-47D breast
[26] = tested on: HCC-2998 colon
[27] = tested on: UO-31 renal
[28] = tested on: MALME-3M melanoma
[29] = tested on: OVCAR-8 ovarian
[30] = tested on: NCI/ADR-RES ovarian
[31] = tested on: A498 renal
[32] = tested on: SK-MEL-2 melanoma
[33] = tested on: UACC-257 melanoma
[34] = tested on: NCI-H226 lung
[35] = tested on: DU-145 prostate
[36] = tested on: BT-549 breast
[37] = tested on: SNB-19 CNS
[38] = tested on: HOP-62 NSCLC
[39] = tested on: MDA-MB-435
[40] = tested on: SW-620 colon
[41] = tested on: M14 melanoma
[42] = tested on: K-562 leukemia
[43] = tested on: HCT-15 colon
[44] = tested on: SNB-75 CNS
[45] = tested on: OVCAR-5 ovarian
[46] = tested on: A549 NSCLC
[47] = tested on: SN12C renal
[48] = tested on: MDA-N
[49] = tested on: NCI-H522 lung
[50] = tested on: RXF 393 renal
[51] = tested on: MDA-MB-231 breast
[52] = tested on: EKVX NSCLC
[53] = tested on: MOLT-4 leukemia
[54] = tested on: OVCAR-3 ovarian
[55] = tested on: CAKI-1 renal
[56] = tested on: OVCAR-4 ovarian
[57] = tested on: U251 CNS

Measured: TGI

C=CCN(c1cc(O)c2c(c(C)cn2S(=O)(=O)c2ccccc2)c1[N+](=O)[O-])S(C)(=O)=O
> 100 µM: [1] | [2] | [3] | [4] | [5] | [6] | [7] | [8] | [9] | [10] | [11] | [12] | [13] | [14] | [15] | [16] | [17] | [18] | [19] | [20] | [21] | [22] | [23] | [24] | [25] | [26] | [27] | [28] | [29] | [30] | [31] | [32] | [33] | [34] | [35] | [36] | [37] | [38] | [40] | [41] | [42] | [43] | [44] | [45] | [46] | [47] | [48] | [49] | [50] | [51] | [52] | [53] | [54] | [55] | [56] | [57]
74.7 µM: [39]

Reference: PubChem BioAssay (NCI)
